Assay results reported in patent US6747135B1, “Fluorescent dye binding peptides” (The Board of Trustees for the Leland Stanford Junior …, priority 1998, dated 2004).
“Also recorded” adds a separate entry of the source.

Columns and labels:
[1] = Peptide-Texas Red binding in solution, excitation and emission spectra; conditions: for changes in peak excitation or emission: concentrated peptide with 50 nM Texas Red; for peak emission shift / peak excitation shift: 10 μM peptide, 50 nM Texas Red, TBS, 1 hr RT
Method: FIGS. 5A and 5B. Peptide—Texas Red binding. Excitation and emission spectra. Peptides at the noted concentrations were incubated with Texas Red (50 nM), or without, in 0.6 ml of TBS for 1 hr at room temperature (RT). Samples were scanned on a spectrofluorimeter (SPEX Fluoromax (Jobin Yvon-SPEX Instruments Co.)). Excitation and excitation/emission peak shifts for PepTR401(10 μM)/Texas Red and PepTRS311 (10 μM)/Texas Red complexes, respectively (A), were reproducible in three independent experiments. The results of a single experiment are presented.
(§1) The above test only checks for bound dye that remains fluorescent at the wavelengths tested. Binding of fluorophore dyes to specific peptides might result in changes in the fluorescence spectra of bound dye versus the spectra of free dye. Or, one might observe an increase or quenching of fluorescence. We mixed concentrated peptide with 50 nM of the corresponding dye in solution and determined the excitation and emission spectra of the resulting mixture.
We attempted with these findings to obtain an affinity measurement for the higher affinity TRS311 peptide. Peptides in different concentrations (1.3-20 μM) were incubated with Texas Red (50 nM) in 0.6 ml of TBS buffer for 1 hr at RT. Excitation and emission spectra of samples were obtained by using spectrofluorimeter SPEX Fluoromax (Jobin Yvon-SPEX Instruments Co.) and DataMax software package. Peak positions were automatically calculated by software. List mode data was saved for other analyses.

[2] = Dye binding to peptide-coated cobalt Sepharose beads, fluorescence microscopy; conditions: 0.5 μM Texas Red in TBS, 1 hr, RT
Method: FIG. 6. Texas Red-specific peptide PepTR401 (Panel A), PepTRS311 (Panel B), PepTR406 (Panel C) and nonspecific PepControl (Panel D) (see peptide sequences in Table 4) were bound via His6 tag to cobalt ion-containing Sepharose beads. The peptide coated beats were washed and incubated with 0.5 micromolar Texas Red in TBS for 1 hour at room temperature followed by several washings of beads in order to remove unbound dye. Fluorescent and nonflourescent control beads were photographed on fluorescent microscope Axiophot (Zeiss) using Rhodamine Red/Texas Red filter with the same time exposure for every sample. All binding experiments were accomplished in three parallels and results of a single experiments are shown.
Peptides were bound to cobalt ion-coated Sepharose beads and the resultant peptide-coated beads were incubated with corresponding fluorophore dyes, washed, and visualized for dye binding. The same amounts of Texas Red-specific peptides PepTR401, PepTRS311, PepTR406 as well as nonspecific peptide PepControl (see Table 4) were bound via His6 tag to the TALON Metal Affinity Resin (Clontech) in TBS buffer essentially as described by manufacturer's protocol. Beads (5 μl) were washed twice with 0.5 ml TBS to remove unbound peptide and incubated with 0.5 μM Texas Red in 40 μl of TBS buffer for 1 hr at RT. Finally, the beads were washed three times with 0.3 ml TBS to remove unbound dye. Fluorescent and nonfluorescent control beads were photographed with 10-fold magnification on fluorescent microscope Axiophot (Zeiss) using Rhodamine Red/Texas Red filter with 5″ exposure.

[3] = Binding affinity of phage clones carrying SKVILFE-flanked fluorettes; conditions: phage clone, SKVILFE-flanked fluorette
[4] = Phage binding to Oregon Green 514 carrier beads, plaque assay of bound phage; conditions: for Kd: phage clone, Oregon Green 514 carrier beads
Method: (§2) These mutations may be important for increasing the overall affinity of the peptide fluorette-fluorophore interaction. We tested one of each of the phage from the secondary screens for increases in avidity (Table 3). PEG-purified TR401 phage, TRS311 phage or the amplified Ph.D.-12 phage display peptide library phage as a negative control (input 1.5×10^8-1.1×10^10 pfu with 2 to 5-fold increments) were incubated with 23.5 μl of BSA-blocked and washed Texas Red carrier beads in binding buffer (see above) in total volume 40 μl for 3 hr. Beads suspensions were centrifuged, the supernatants (unbound phage) were titrated and dissociation constants were measured via a standard linear Scatchard plot. For TR401 and TRS311 phage bound/unbound ratios were quite reliable (6.3-13.1 in the range of phage concentrations shown above). All binding experiments were performed in duplicate and titrations were performed in triplicate. […] For higher Kd, bound/unbound ratios became unreliable (=1).
(§3) Other PEG-purified phage (input 5×10^8-2.5×10^10 pfu with 2 to 5-fold increments) were bound to the respective fluorophore dye carriers essentially in the same manner as described above for Texas Red-specific phage. RhR401 and RhRS308, OG403 and OGS316, OG402 and FluS303 phage, were bound to the Rhodamine Red, Oregon Green 514 or Fluorescein carriers, respectively. Following binding the beads were quickly washed twice by 0.25 ml of TBS+0.1% Tween-20 and suspended in 10 ml TBS. 10 μl of suspension was mixed with ^−2×10^8 log-phase ER2537 cells and incubated 1 hr at 4° C. with slight shaking to allow phage adsorption. Several ten-fold dilutions of infected cells were mixed with noninfected ER2537 cells and plated in standard plaque assay (Sambrook et al., supra). All binding experiments and titrations were accomplished in duplicate. […] For all above phage pfu/particle ratio was in the range 0.4-0.5.

[5] = Phage-free fluorophore dye binding in solution (PEG precipitation, filter scan); conditions: vs unselected library phage
Excerpt: FIG. 3. Phage-fluorophore dye binding. Fluorophore dye-specific OG403, OG402, RhR401 and TR401 phage were bound to Oregon Green 514, Fluorescein, Rhodamine Red and Texas Red “free” dyes, respectively (see text). The normalized particle amounts of amplified Ph.D.-12 phage display peptide library (nonspecific phage) were bound in solution with the same dyes as controls. Phage-fluorophore dye complexes were precipitated three times by PEG to remove unbound dye and spotted to a nitrocellulose filter. The filter was scanned on the Storm 840 scanner (Molecular Dynamics). The presented data is from a single scan and image enhancements were done simultaneously on the complete set of dye binding results using NIH Image 1.59 software. Specific/nonspecific signal ratios were quantified by densitometry of spot images using NIH Image 1.59 software (see Materials and Methods for details). All binding experiments shown were completed in duplicate. Densitometry was carried out prior to contrast enhancement. Brightness and contrast values were modified to 50 and 65, respectively in Adobe Photoshop. Individual elements of the figure were arranged as a composite from the same original scan from which the binding ratios were determined.
Four activated derivatives of fluorophore dyes (see above) were quenched in 0.5M Tris-HCl, pH 8.7 and used as “free” dyes. Ten μl of PEG-purified and 300-fold concentrated phage TR401, RhR401, OG402, OG403 (1.3-1.8×10^12 phage particles; calculated from optical densities of the purified phage at 260 and 280 nm) in TBS+0.05% sodium azide buffer were separately mixed with an equal volume of 20 μM solution of the corresponding free dyes in the same buffer; mixtures were adjusted by Tween-20 to 0.1% and incubated for 3 hr. Phage-fluorophore dye complexes were precipitated three times by PEG-8000 in order to remove unbound dye and dissolved in 6.6 μl of TBS+0.05% sodium azide buffer. Finally, phage-fluorophore dye complexes (1 μl of each) were spotted to nitrocellulose filter and filter was scanned on the Storm 840 scanner (Molecular Dynamics) in Blue Fluorescence/Chemifluorescence mode with 200 μ pixel resolution. To determine nonspecific binding the normalized amounts of phage particles of amplified, unselected, and PEG-purified Ph.D.-12 phage display peptide library were separately incubated with the corresponding free dyes and treated in the same conditions. All binding experiments were accomplished in duplicate. Specific/nonspecific signal ratios were quantified by densitometry of spot images using “Measure” option of NIH Image 1.59 freeware package.

[6] = Phage binding to Rhodamine Red carrier beads, plaque assay of bound phage; conditions: for Kd: phage clone, Rhodamine Red carrier beads
Method: as §2, §3

[7] = Cross-binding of Rhodamine Red-selected phage to the inappropriate dye carrier; conditions: RhR-4 phage on Texas Red carrier, vs nonspecific phage background
Excerpt: (§4) We tested the binding specificity and excluded the possibility that the TR401 and RhR401 phage were selected against the polymer linker moiety rather than a fluorophore dye moiety of the dye carriers. The TR-4 and RhR-4 phage were cross-bound to Rhbdamine Red and Texas Red carriers, respectively. […] Thus the TR401 and RhR401 fluorettes are specific by this comparison for their respective conjugated dyes, despite the similarity of the compound core ring structures. Second, they had affinity for the corresponding conjugated fluorophore dyes rather than only a polymer linker moiety of Texas Red and Rhodamine Red carriers or other chemical features of the carriers themselves.

[8] = Dye binding to peptide-coated cobalt Sepharose beads, fluorescence microscopy; conditions: Oregon Green 514
[9] = as above; conditions: Fluorescein
[10] = Peptide-Fluorescein binding in solution, excitation and emission spectra; conditions: peptide with 50 nM Fluorescein
Method: as §1

[11] = Phage direct binding to Texas Red carrier beads, Scatchard plot; conditions: phage clone (5 pIII-fluorette copies, avidity), 3 hr
Method: as §2

[12] = Cross-binding of Texas Red-selected phage to the inappropriate dye carrier; conditions: TR-4 phage on Rhodamine Red carrier, vs nonspecific phage background
Excerpt: as §4

[13] = Phage binding to Fluorescein carrier beads, plaque assay of bound phage; conditions: for Kd: phage clone, Fluorescein carrier beads
Method: as §2, §3

[14] = Binding affinity of synthetic constrained peptides to Texas Red; conditions: for Kd: synthetic SKVILFE-flanked peptide; for fold more avid than linear TR401 and TRS311 peptides: synthetic constrained vs linear peptides

## ASGSGASGSAGSGGGSAETVGGGHHHHHH [control peptide, reference compound]
[1]
  changes in peak excitation or emission: No detectable changes

## DFLOWKLAROKPGGGSAETVGGGHHHHHH (DFLQWKLARQKPGGGSAETVGGGHHHHHH; fluorette) [PepTR406]
[2]
  dye binding to peptide-coated beads: did not bind
[1]
  changes in peak excitation or emission: No detectable changes

## EPMARPWERKQDR [TRP527]
[3]
  Kd: > 5 nM

## GNQKCLQHNRCST [TRP518]
[3]
  Kd: > 5 nM

## GTLSATRPYGRQW [TRP541]
[3]
  Kd: > 5 nM

## HEWEYYWDWTAW [OGS316]
[4]; mutant fluorette phage vs parental OG403 phage
  Affinity increase (fold): 2.7 fold
[4]
  Kd: 2.4 nM

## HGWDYYWDWTAW [OG403]
[4]
  Kd: 6.4 nM
[5]; free Oregon Green 514, 3 hr
  phage binding of free fluorophore dye in solution: specifically bound

## IPHPPMYWTRVF [RhR401]
[6]
  Kd: 23 nM
[7]
  binding specificity, cross-binding to inappropriate dye carrier: specific
[5]; free Rhodamine Red, 3 hr
  phage binding of free fluorophore dye in solution: specifically bound

## IPHRPMYWTPVF [RhRS308]
[6]; mutant fluorette phage vs parental RhR401 phage
  Affinity increase (fold): not even marginally improved; also recorded: no increase
[6]
  Kd: 21.5 nM

## KHVOYWTOMFYSGGGSAETVGGGHHHHHH (KHVQYWTQMFYSGGGSAETVGGGHHHHHH; fluorette) [PepTR401]
[2]
  dye binding to peptide-coated beads: significant binding
[8]
  dye binding to peptide-coated beads: bound to neither Oregon Green 514 nor Fluorescein
[9]
  dye binding to peptide-coated beads: bound to neither Oregon Green 514 nor Fluorescein
[1]
  peak emission shift: no emission shift change
  peak excitation shift: +1.9 nm
[10]
  shift in Fluorescein excitation or emission spectra: no shift

## KHVQYWTQMFYS [TR401]
[11]
  Kd: 0.27 nM
[12]
  binding specificity, cross-binding to inappropriate dye carrier: specific
[5]; free Texas Red, 3 hr
  phage binding of free fluorophore dye in solution: specifically bound

## KPVOYWTOMFYTGGGSAETVGGGHHHHHH (KPVQYWTQMFYTGGGSAETVGGGHHHHHH; fluorette) [PepTRS311]
[2]
  dye binding to peptide-coated beads: significant binding
[8]
  dye binding to peptide-coated beads: bound to neither Oregon Green 514 nor Fluorescein
[9]
  dye binding to peptide-coated beads: bound to neither Oregon Green 514 nor Fluorescein
[1]
  peak emission shift: 1.4 nm
  peak excitation shift: ~+2.8 nm
[1]; calculated roughly from peak shifts, peptide 1.3-20 μM, Texas Red 50 nM, read-out: affinity of the peptide for the fluorophore
  Kd: 100 to 500 nM
[1]; peptide from 10 μM to 1.3 μM, Texas Red 50 nM
  change in peak excitation position on reducing peptide concentration: reduced slightly, but not completely

## KPVQYWTQMFYT [TRS311]
[11]
  Kd: 0.09 nM

## RTIWEPKEASNHT [TRP501]
[3]
  Kd: 0.08 nM

## RWTWEPISE [TRP512]
[3]
  Kd: 0.025 nM

## SQTWSFPEH [TRP526]
[3]
  Kd: > 5 nM

## WSKMGHTVT [TRP505]
[3]
  Kd: > 5 nM

## YPNDFEWWEYYF [OG402]
[13]
  Kd: 17.4 nM
[5]; free Fluorescein, 3 hr
  phage binding of free fluorophore dye in solution: specifically bound

## YPNEFDWWDYYY [FluS303]
[13]; mutant fluorette phage vs parental OG402 phage
  Affinity increase (fold): 6.5 fold
[13]
  Kd: 2.7 nM

## synthetic SKVILFE-flanked Texas Red-specific peptide with His6 tag (SEQ ID NO:120) (GGGSKVILFEGPAGRTIWEPKEASNHTGAPGSKVILFEGGPGHHHHHH) [TRP501 peptide]
[14]
  Kd: ~200 nM
  fold more avid than linear TR401 and TRS311 peptides: ≈ 8 fold

## synthetic SKVILFE-flanked Texas Red-specific peptide with His6 tag (SEQ ID NO:121) (GGGSKVILFEGPAGRWTWEPISEGAPGSKVILFEGGPGHHHHHH) [TRP512 peptide]
[14]
  Kd: ~10 nM
  fold more avid than linear TR401 and TRS311 peptides: ≈ 160 fold
